Experiments:
Assay in all cases: relative viability (nuclei count vs DMSO), 5 days (fraction); higher = more cells survive
Carfilzomib + Crizotinib = compound: CC(C)C[C@H](NC(=O)[C@H](CCc1ccccc1)NC(=O)CN1CCOCC1)C(=O)N[C@@H](Cc1ccccc1)C(=O)N[C@@H](CC(C)C)C(=O)[C@@]1(C)CO1 [Carfilzomib] + C[C@@H](Oc1cc(-c2cnn(C3CCNCC3)c2)cnc1N)c1c(Cl)ccc(F)c1Cl [Crizotinib] (partner 1 µM)
Method in brief: (§1)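 Relative viability was taken as the ratio of nuclei in treated wells to nuclei in vehicle wells. Lung cancer cell lines in 1536-well plates received compounds by pin tool one day after seeding, either one drug alone or a fixed anchor-drug dose plus five library-drug doses (not always all listed) in √10 steps. Nuclei were counted on 4× images after 5 days of treatment, and values are medians of duplicate plates.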

Crizotinib + AZD7762 = compound: C[C@@H](Oc1cc(-c2cnn(C3CCNCC3)c2)cnc1N)c1c(Cl)ccc(F)c1Cl [Crizotinib] + NC(=O)Nc1cc(-c2cccc(F)c2)sc1C(=O)N[C@H]1CCCNC1 [AZD7762] (partner 0.2 µM)
Method in brief: as §1

Olaparib + Crizotinib = compound: O=C(c1cc(Cc2n[nH]c(=O)c3ccccc23)ccc1F)N1CCN(C(=O)C2CC2)CC1 [Olaparib] + C[C@@H](Oc1cc(-c2cnn(C3CCNCC3)c2)cnc1N)c1c(Cl)ccc(F)c1Cl [Crizotinib] (partner 1 µM)
Method in brief: as §1

Olaparib + Linsitinib = compound: O=C(c1cc(Cc2n[nH]c(=O)c3ccccc23)ccc1F)N1CCN(C(=O)C2CC2)CC1 [Olaparib] + C[C@]1(O)C[C@@H](c2nc(-c3ccc4ccc(-c5ccccc5)nc4c3)c3c(N)nccn32)C1 [Linsitinib] (partner 1 µM)
Method in brief: as §1

Cell Line	relative viability (Carfilzomib + Crizotinib; first compound 0.001 µM)	relative viability (Carfilzomib + Crizotinib; first compound 0.003162 µM)	relative viability (Carfilzomib + Crizotinib; first compound 0.01 µM)	relative viability (Carfilzomib + Crizotinib; first compound 0.03162 µM)	relative viability (Carfilzomib + Crizotinib; first compound 0.1 µM)	relative viability (Crizotinib + AZD7762; first compound 0.01 µM)	relative viability (Crizotinib + AZD7762; first compound 0.03162 µM)	relative viability (Crizotinib + AZD7762; first compound 0.1 µM)	relative viability (Crizotinib + AZD7762; first compound 1 µM)	relative viability (Olaparib + Crizotinib; first compound 0.08 µM)	relative viability (Olaparib + Crizotinib; first compound 0.253 µM)	relative viability (Olaparib + Crizotinib; first compound 2.53 µM)	relative viability (Olaparib + Crizotinib; first compound 8 µM)	relative viability (Olaparib + Linsitinib; first compound 0.08 µM)	relative viability (Olaparib + Linsitinib; first compound 0.253 µM)	relative viability (Olaparib + Linsitinib; first compound 2.53 µM)	relative viability (Olaparib + Linsitinib; first compound 8 µM)	relative viability (Crizotinib + AZD7762; first compound 0.3162 µM)
NCI-H460	0.921	1.01	0.852	0.0558	0.0115	0.592	0.64	0.665	0.607	0.875	0.744	0.502	0.17	0.86	0.614	0.316	0.191	–
NCI-H596	0.916	1.28	1	0.77	0.334	1.05	1.01	1.03	1.16	0.736	0.866	1.02	0.833	1.04	0.856	0.923	0.744	–
NCI-H647	0.847	1.04	0.713	0.0319	0.0277	0.444	0.626	0.403	0.595	1.23	0.914	0.923	0.675	1.4	1.05	0.919	0.779	0.394
NCI-H650	0.677	0.996	0.698	0.577	0.132	1.03	0.979	0.815	0.945	0.899	0.713	0.623	0.615	0.806	0.735	0.776	0.724	–
NCI-H727	0.84	0.682	0.871	0.223	0.141	0.566	0.568	0.567	0.661	0.934	0.737	0.671	0.48	0.283	0.241	0.247	0.282	0.433
NCI-H838	0.876	0.972	0.923	0.577	0.122	0.975	0.919	0.969	0.974	0.882	0.774	0.779	0.742	1.05	0.928	0.971	0.933	0.9
NCI-H1355	1.05	1.05	1.03	0.695	0.139	0.678	0.707	0.867	0.769	1.17	1.01	1.02	0.923	0.882	0.811	0.775	0.637	0.675

Source: the supplement of paper PMC10307832
